Data on five compounds can be found in article PMC10363080, “Modulatory Effect of Pyrus pyrifolia Fruit and its Phenolics on Key Enzymes against Metabolic Syndrome: Bioassay-Guided Approach, HPLC Analysis, and In Silico Study” (Plant Foods for Human Nutrition (Dordrecht, Netherlands), 2023).

The structures appear in SMILES notation.

The nature of assay [1]: ABTS radical scavenging antioxidant assay. The arrangement: ABTS AA (%) antioxidant activity percentage: concentration or dose not given beside the values. The following applies: for ABTS antioxidant activity: Trolox equivalent per gram of sample, mean ± SD, n=3; for ABTS AA (%) antioxidant activity percentage: compared to ascorbic acid (=100). How it is done: all of analytical grade. An electrothermal 9100 (UK) was used for the determination of melting points (uncorrected). A Jenway model 6800 spectrophotometer was utilized for recording UV spectra. A Tecan, microplate reader, ((Infinite F50, Switzerland)) was used to measure the absorbances. A Bruker NMR system was used for 1H-NMR (400 MHz) and 13C-NMR (100 MHz).
The NMR spectra were determined in CD3OH and DMSO-d6. Chemical shifts are given in δ (ppm) relative to the internal standard TMS. Phenolic acids and flavonoids used in HPLC analysis as well as all other reagents for biological investigations were obtained from Sigma Chemical Company […]
Determination of the antioxidant activity
2,2`-Azino-bis(3-ethylbenzothiazoline-6-sulfonic acid) (ABTS), ferric reducing antioxidant power (FRAP), and oxygen radical absorbance capacity (ORAC) assays were performed according to the previously published procedures. Ascorbic acid was used as a reference antioxidant […]
drug. […]

A further assay deals with T1, pancreatic α-amylase (Sus scrofa, UniProt P00690).
T1 construct: pancreatic α-amylase (ex -porcine pancreas, EC 3.2.1.1, Sigma); purchased Sigma; host or cells: porcine pancreas
T1 sequence (P00690 16-511): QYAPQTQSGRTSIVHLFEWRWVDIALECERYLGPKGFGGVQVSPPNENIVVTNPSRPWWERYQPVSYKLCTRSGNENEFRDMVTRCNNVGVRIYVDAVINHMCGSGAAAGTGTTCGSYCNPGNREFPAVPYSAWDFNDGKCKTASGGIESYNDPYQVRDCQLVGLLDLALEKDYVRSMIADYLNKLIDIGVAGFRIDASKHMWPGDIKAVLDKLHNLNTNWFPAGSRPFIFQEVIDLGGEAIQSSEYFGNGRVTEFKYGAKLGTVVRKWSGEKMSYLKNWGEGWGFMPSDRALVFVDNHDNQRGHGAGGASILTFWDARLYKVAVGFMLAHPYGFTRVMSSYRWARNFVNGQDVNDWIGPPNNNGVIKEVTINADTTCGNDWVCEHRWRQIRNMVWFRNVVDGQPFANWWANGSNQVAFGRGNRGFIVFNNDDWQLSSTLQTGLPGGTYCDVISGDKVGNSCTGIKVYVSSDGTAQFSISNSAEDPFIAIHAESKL
Kind of assay: α-Amylase inhibitory activity (starch substrate). Conditions: isolated compounds, Table S7; read-out: Inhibition (IC50) α-Amylase. It counts as biochemical, porcine. Here is the method: (§1) Phenolic acids and flavonoids used in HPLC analysis as well as all other reagents for biological investigations were obtained from Sigma Chemical Company […]
(§2) Inhibitory activity against key enzymes related to metabolic syndrome (MS) All assays were performed in 96-well plates. Stock solutions of the extract (100 mg/mL), fractions (100 mg/mL), and isolated compounds (1000 µM) were prepared. Tested samples that exceeded […]
(§3) inhibitory concentration (IC50). The percentage of enzyme inhibition was calculated according to […]
(§4) % Inhibition = (A−B) − (C−D) x 100 […]
α-Amylase inhibitory activity
α-Amylase inhibition assays were performed according to a previously described method. The tested samples we re incubated with pancreatic α-amylase (ex -porcine pancreas, EC 3.2.1.1, Sigma) followed by the addition of starch and iodine -potassium iodide solution for colo r development.
Starch [50 μL, 1% phosphate-buffered saline (PBS)] was mixed as substrate with 13 U mL−1 pancreatic α-amylase prepared in PBS, and 50 μL of test solution. A blank was performed using PBS. To initiate the reaction, the enzyme was added to the assay solution after being pre-incubated separately at 37 °C in a water bath for 10 min. Dinitrosalicylic acid reagent (1 mL) was added and […]
heated at 85 °C for 15 min. Then, it was cooled to room temperature and distilled water (1 mL) […]
was added. […] The absorbance was recorded at 540 nm.
Pancreatic lipase inhibitory activity […]

The target of assay [2] is T2, inducible nitric oxide synthase (iNOS) (Mus musculus, UniProt P29477).
T2 construct: endogenous in cells; host or cells: RAW264.7 mouse macrophages, LPS-induced
T2 sequence (P29477 1-1144): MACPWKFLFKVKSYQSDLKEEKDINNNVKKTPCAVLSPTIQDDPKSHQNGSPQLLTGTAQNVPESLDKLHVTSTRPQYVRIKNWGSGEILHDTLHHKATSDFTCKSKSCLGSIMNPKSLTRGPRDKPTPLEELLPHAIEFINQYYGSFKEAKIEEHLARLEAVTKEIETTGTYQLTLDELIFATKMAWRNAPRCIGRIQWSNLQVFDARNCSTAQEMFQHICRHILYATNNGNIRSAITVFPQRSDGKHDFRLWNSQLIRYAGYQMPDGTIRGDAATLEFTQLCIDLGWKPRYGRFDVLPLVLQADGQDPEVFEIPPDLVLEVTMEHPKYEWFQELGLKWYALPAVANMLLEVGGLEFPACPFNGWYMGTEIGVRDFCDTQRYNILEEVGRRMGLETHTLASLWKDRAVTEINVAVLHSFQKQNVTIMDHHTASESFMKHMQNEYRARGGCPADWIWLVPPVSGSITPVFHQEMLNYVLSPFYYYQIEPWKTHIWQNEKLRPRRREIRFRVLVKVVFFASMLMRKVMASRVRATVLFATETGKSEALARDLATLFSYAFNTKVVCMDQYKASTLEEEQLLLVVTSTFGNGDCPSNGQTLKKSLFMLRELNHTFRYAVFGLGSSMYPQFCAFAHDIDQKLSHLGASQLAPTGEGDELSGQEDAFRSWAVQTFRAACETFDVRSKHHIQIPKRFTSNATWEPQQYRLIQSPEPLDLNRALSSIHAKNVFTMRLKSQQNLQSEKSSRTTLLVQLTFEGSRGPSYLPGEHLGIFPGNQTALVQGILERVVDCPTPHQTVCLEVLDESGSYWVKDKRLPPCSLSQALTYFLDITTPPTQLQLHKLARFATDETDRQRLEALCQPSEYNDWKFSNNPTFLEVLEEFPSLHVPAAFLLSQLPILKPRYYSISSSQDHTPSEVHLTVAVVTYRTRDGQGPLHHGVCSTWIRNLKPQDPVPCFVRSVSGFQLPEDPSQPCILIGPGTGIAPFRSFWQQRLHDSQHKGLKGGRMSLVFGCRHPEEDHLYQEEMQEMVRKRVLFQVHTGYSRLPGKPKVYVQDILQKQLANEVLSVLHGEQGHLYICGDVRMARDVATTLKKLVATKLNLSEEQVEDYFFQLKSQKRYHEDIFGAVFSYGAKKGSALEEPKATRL
Kind of assay: iNOS inhibitory activity in LPS-induced RAW264.7 macrophages (nitrite, Griess reagent). Type of assay: cell-based. Conditions: isolated compounds, Table S7, RAW264.7 cells, read-out: Inhibition (IC50) iNOS (converted). How it is done: as §1, §2, §3, §4
Inducible nitric oxide synthase (iNOS) inhibitory activity iNOS inhibitory activity was determined in mouse macrophage cells (RAW264.7, Shanghai BOGO Industrial Co., Ltd., China) according to a previously designed method. Phenol red-free RPMI medium from Thermo-Fisher was used to develop macrophages. It was supplemented with 10% bovine calf serum, 100 U/mL of penicillin G sodium from Sigma-Aldrich, and 100 µg/mL of streptomycin (Sigma-Aldrich). Cells (50,000/well) were seeded onto 96-well plates, which were […]

In the case of `C[C@@H]1O[C@@H](OC[C@H]2O[C@@H](Oc3c(-c4ccc(O)c(O)c4)oc4cc(O)cc(O)c4c3=O)[C@H](O)[C@@H](O)[C@@H]2O)[C@H](O)[C@H](O)[C@H]1O` [P1, rutin], in assay [1], the ABTS antioxidant activity came out at 180.29±1.08 μM TE/g and the “ABTS AA (%) antioxidant activity percentage” value turned out to be 62.64%. Further, the IC50 (commonly the concentration needed to halve the response being measured) on pancreatic α-amylase was determined as 3.54 ± 0.21 µM. In assay [2], the IC50 is 4.99 ± 1.94 µM.
Turning to `O=c1c(O[C@@H]2O[C@H](CO)[C@@H](O)[C@H](O)[C@H]2O)c(-c2ccc(O)c(O)c2)oc2cc(O)cc(O)c12` [P2, isoquercitrin], the ABTS antioxidant activity in assay [1] amounted to 240.75±0.28 μM TE/g. In assay [1], the “ABTS AA (%) antioxidant activity percentage” value is listed as 83.66%. Besides, the figures for the half-maximal inhibitory concentration (IC50) (on pancreatic α-amylase; in assay [2]) were 1.54 ± 0.18 µM and 4.8 ± 0.99 µM, respectively.
For `COc1cc(-c2oc3cc(O)cc(O)c3c(=O)c2O[C@@H]2O[C@H](CO)[C@@H](O)[C@H](O)[C@H]2O)ccc1O` [P3, isorhamnetin-3-O-β-D-glucopyranoside], in that order: 229.71±0.38 μM TE/g, 79.82%, 2.31 ± 0.87 µM and 4.89 ± 0.78 µM.
On to `O=C(/C=C/c1ccc(O)c(O)c1)O[C@@H]1C[C@](O)(C(=O)O)C[C@@H](O)[C@H]1O` [P4, chlorogenic acid], for which the values for the concentration for half-maximal inhibition (IC50) (at pancreatic α-amylase; in assay [2]) were 3.78 ± 0.19 µM and 4.79 ± 0.89 µM, respectively.
As for `O=C(O)/C=C/c1ccccc1` [P6, cinnamic acid], the ABTS antioxidant activity in assay [1] is recorded as 250.28±0.21 μM TE/g; in assay [1] (listed as Cinnamic acid (P6)), 250.28 ± 0.21 μM TE/g. Besides, in assay [1], the “ABTS AA (%) antioxidant activity percentage” value stood at 86.97%. For the same compound, the half-maximal inhibitory concentration (IC50) on pancreatic α-amylase is 1.02 ± 0.63 µM; in assay [2], 4.76 ± 0.25 µM.
